Assay results from patent publication US11554188B2, “Anti-viral dry cleaning process” ([…], LLC, priority 2020, dated 2023).
Several values for one entry are separate records, joined by “and”; a condition that tells them apart may be missing. Equal values may be shown once. Read-outs that look alike come from different tables or passages of the source.

Key:
Format in all cases: cell-based
[1] = system: SARS-CoV-2 strain USA-WA1/2020; details: Silicone wash, and spin cycle, time 45 min
[2] = system: SARS-CoV-2 strain USA-WA1/2020; details: for Averaged Test Sample Percent Log Reduction to Averaged Virus Controls: averaged over 15, 30, 45 min
[3] = system: SARS-CoV-2 strain USA-WA1/2020; assay: Drying cycle and washing cycle combined test results (complete dry cleaning process); details: for Averaged Test Sample Percent Log Reduction of complete dry cleaning process: wash/spin results combined with heat, liquid and vapor results
Description: Data shown in Table 2 represents the individual dry cleaning process percent log reduction to the control samples for each coupon set at each process time, and averaged percent reduction of each process on viral deactivation. The silicone wash and spin rinse tests were combined with the heat, silicone liquid, and vapor exposure process results to define the overall percent viral reduction of the complete dry cleaning process. A plot showing the percent log reduction efficacy of each of the simulated dry cleaning processes and the total process in deactivating SARS-CoV-2 infected wool blend fabric material is shown in FIG. 2.
This testing was conducted to provide an accurate simulation of patented dry cleaning process in a laboratory environment.
It should be noted, that in one simulation of the drying cycle, the combination of heat, vapor, and liquid condition produced a percent log reduction to virus control of 98.00%.

[4] = Heat + Liquid + Vapor, 70° C., 15 min
[5] = Heat + Liquid + Vapor, 70° C., 30 min
[6] = Heat + Liquid + Vapor, 70° C., 45 min
[7] = Heat + Silicone Liquid, 70° C., 15 min
[8] = Heat + Silicone Liquid, 70° C., 30 min
[9] = Heat + Silicone Liquid, 70° C., 45 min
[10] = Heat + Silicone Vapor, 70° C., 15 min
[11] = Heat + Silicone Vapor, 70° C., 30 min
[12] = Heat + Silicone Vapor, 70° C., 45 min
[13] = samples G5-15 (condition cell blank; heat + liquid + vapor per Table 2), 15 min
[14] = samples G5-30 (condition cell blank; heat + liquid + vapor per Table 2), 30 min
[15] = samples G5-45 (condition cell blank; heat + liquid + vapor per Table 2), 45 min
[16] = Complete cycle - silicone wash, spin, heat and vapor, time 45 min
[17] = Silicone wash, and spin cycle, time 45 min

Structure (SMILES): C[Si]1(C)O[Si](C)(C)O[Si](C)(C)O[Si](C)(C)O[Si](C)(C)O1 [D5, decamethylcyclopentasiloxane]
- Average of Test Replicates TCID50 ([1]; 89 mL, 35 RPM 16 min, spin 500 rpm 4 min): 35138.40
- Average of Test Replicates Log10 TCID50 [1]: 4.54
- Averaged Test Sample Percent Log Reduction of complete dry cleaning process [1]: 56.18%
- Log10 Reduction to virus control [1]: 0.36
- Percent Log Reduction to Virus Control [1]: 56.18%
- Percent Log Reduction to Virus Control ([1]; listed as Silicone): 56.18%
- TCID50 (individual sample) ([2]; D5 Liquid Only Control, 45 min): 31.62
- Avg TCID50 ([2]; Heat & D5 Liquid, 15 min): 789.8
- TCID50 (individual sample) ([2]; Heat & D5 Liquid, 15 min): 316.2 and 794.3 and 1258.9254
- Avg TCID50 ([2]; Heat & D5 Liquid, 30 min): 1125
- TCID50 (individual sample) ([2]; Heat & D5 Liquid, 30 min): 879.9254 and 501.2 and 1995.2623
- Avg TCID50 ([2]; Heat & D5 Liquid, 45 min): 1590
- TCID50 (individual sample) ([2]; Heat & D5 Liquid, 45 min): 1258.9254 and 1415.1212 and 2096.18
- Avg TCID50 ([2]; Heat & D5 Vapor, 15 min): 3389.8041
- TCID50 (individual sample) ([2]; Heat & D5 Vapor, 15 min): 1995.2623 and 5011.8723 and 3162.2777
- Avg TCID50 ([2]; Heat & D5 Vapor, 30 min): 2510
- TCID50 (individual sample) ([2]; Heat & D5 Vapor, 30 min): 5011.8723 and 1258.9254 (2×)
- Avg TCID50 ([2]; Heat & D5 Vapor, 45 min): 2983
- TCID50 (individual sample) ([2]; Heat & D5 Vapor, 45 min): 3162.2777 and 3690.622 and 2096.18
- Average of Test Replicates Log10 TCID50 [2, 4]: 1.98
- Average of Test Replicates TCID50 [2, 4]: 94.92
- Log10 Reduction to virus control [2, 4]: 1.70
- Percent Log Reduction to Virus Control [2, 4]: 98.00%
- Percent Log Reduction to Virus Control ([2]; Heat + Liquid + Vapor, 70° C., 15 min, listed as Silicone): 98.00%
- Average of Test Replicates Log10 TCID50 [2, 5]: 2.14
- Average of Test Replicates TCID50 [2, 5]: 138.31
- Log10 Reduction to virus control [2, 5]: 1.54
- Percent Log Reduction to Virus Control [2, 5]: 97.09%
- Average of Test Replicates Log10 TCID50 [2, 6]: 2.37
- Average of Test Replicates TCID50 [2, 6]: 232.01
- Log10 Reduction to virus control [2, 6]: 1.31
- Percent Log Reduction to Virus Control [2, 6]: 95.12%
- Averaged Test Sample Percent Log Reduction to Averaged Virus Controls ([2]; Heat + Liquid + Vapor, 70° C.): approximately 96.7%
- Averaged Test Sample Percent Log Reduction to Averaged Virus Controls ([2]; Heat + Liquid + Vapor, 70° C., listed as Silicone): 96.74%
- Average of Test Replicates Log10 TCID50 [2, 7]: 2.90
- Average of Test Replicates TCID50 [2, 7]: 789.83
- Log10 Reduction to virus control [2, 7]: 0.78
- Percent Log Reduction to Virus Control [2, 7]: 83.39%
- Average of Test Replicates Log10 TCID50 [2, 8]: 3.05
- Average of Test Replicates TCID50 [2, 8]: 1125.46
- Log10 Reduction to virus control [2, 8]: 0.63
- Percent Log Reduction to Virus Control [2, 8]: 76.34%
- Average of Test Replicates Log10 TCID50 [2, 9]: 3.20
- Average of Test Replicates TCID50 [2, 9]: 1590.08
- Log10 Reduction to virus control [2, 9]: 0.48
- Percent Log Reduction to Virus Control [2, 9]: 66.57%
- Averaged Test Sample Percent Log Reduction to Averaged Virus Controls ([2]; Heat + Silicone Liquid, 70° C.): approximately 75.4%
- Averaged Test Sample Percent Log Reduction to Averaged Virus Controls ([2]; Heat + Silicone Liquid, 70° C., listed as Silicone): 75.43%
- Average of Test Replicates Log10 TCID50 [2, 10]: 3.53
- Average of Test Replicates TCID50 [2, 10]: 3389.80
- Log10 Reduction to virus control [2, 10]: 0.15
- Percent Log Reduction to Virus Control [2, 10]: 28.72%
- Average of Test Replicates Log10 TCID50 [2, 11]: 3.40
- Average of Test Replicates TCID50 [2, 11]: 2509.91
- Log10 Reduction to virus control [2, 11]: 0.28
- Percent Log Reduction to Virus Control [2, 11]: 47.23%
- Average of Test Replicates Log10 TCID50 [2, 12]: 3.47
- Average of Test Replicates TCID50 [2, 12]: 2983.03
- Log10 Reduction to virus control [2, 12]: 0.20
- Percent Log Reduction to Virus Control [2, 12]: 37.28%
- Averaged Test Sample Percent Log Reduction to Averaged Virus Controls ([2]; Heat + Silicone Vapor, 70° C.): 37.74%
- Average of Test Replicates Log10 TCID50 ([2]; Silicone Liquid Control, room temperature (23° C.), 45 min): 1.50
- Average of Test Replicates TCID50 ([2]; Silicone Liquid Control, room temperature (23° C.), 45 min, wool blend coupons): 31.62
- Avg TCID50 [2, 13]: 91.92
- TCID50 (individual sample) [2, 13]: 79.43 (2×) and 125.9
- Avg TCID50 [2, 14]: 138.3
- TCID50 (individual sample) [2, 14]: 209.618 and 79.43 and 125.9
- Avg TCID50 [2, 15]: 232.1
- TCID50 (individual sample) [2, 15]: 125.9 (2×) and 444.2
- Average of Test Replicates Log10 TCID50 [3, 16]: 4.54
- Average of Test Replicates TCID50 [3, 16]: 35138.40
- Averaged Test Sample Percent Log Reduction of complete dry cleaning process ([3]; Complete cycle - silicone wash, spin, heat and vapor): approximately 98.6%
- Averaged Test Sample Percent Log Reduction of complete dry cleaning process ([3]; Complete cycle - silicone wash, spin, heat and vapor, listed as Silicone): 98.57%
- Log10 Reduction to virus control [3, 17]: 0.36
- Percent Log Reduction to Virus Control [3, 17]: 56.18%
- optimized calculated log reduction to the average virus controls ([3]; serial combination of 56.18% wash cycle reduction and 98.00% drying cycle reduction (heat, vapor, liquid)): 99.12%
